A word on the melting point: it is the temperature, or range, at which the solid turns liquid.

Molecule `CCOC(=O)c1nc(S)n2c1c(=O)n(C)c1cc(C(F)(F)F)ccc12` came in with a melting point of 282 °C. The figure for `CCC1(C)Cc2cc(OCC(=O)O)c(Cl)c(Cl)c2C1=O` (stereo not drawn) is 168 °C; for `CS(=O)(=O)c1ccc(-c2cnn3c(O)ncnc23)cc1` it is more than 300 °C.

For the molecule `O=C(O)CCCCCCCC(=O)CC(O)C(=O)C=Cc1ccccc1` (stereo not drawn), the melting point is 81.5 to 83 °C. The figure for `Cc1[nH]c(=O)[nH]c1C(=O)C1CC1` is 272 to 273 °C; for `N=C(N)NC(=O)Cc1c(-c2ccccc2)cccc1-c1ccc2ccccc2c1` it is 36.8 to 36.9 °C; for `Cc1ccc2[nH]c3c(cc(-c4cccc(Nc5ccccn5)c4)c(=O)n3C)c2c1` it is 250 to 252 °C.

In turn, `CC(C)Cn1c(CNC(=O)OC(C)(C)C)c(-c2ccc(F)cc2)c2cc(/C=C/C(N)=O)ccc2c1=O` returned a melting point of 161 to 163 °C.

`CN1CCN(c2cc(Cl)cc3c2c(=O)n(Cc2ccc(C#N)cc2)c(=O)n3Cc2ccccc2)CC1` gave a melting point of 99 to 105 °C. Then `FC(F)(F)c1c(Cl)c(Cl)c(C=S)c(Cl)c1Cl`, with 98.5 to 100 °C; and `Cc1nc2c(N)nc3ccccc3c2n1CCOCCNS(C)(=O)=O`, with 152 to 155 °C. Molecule `CC(C)(C)c1ccccc1N1CCN(C(=O)c2ccc(F)cc2)CC1` showed a melting point of 137 to 139 °C. Then `CCCc1nn(C)c2c(=O)[nH]c(-c3cc(S(C)(=O)=O)ccc3OCC)nc12`, with 235 to 236 °C; and `CN1C(=O)N(c2cc(Cl)cc(Cl)c2)C(=O)[C@]12CN(c1ccc(Cl)nn1)C[C@H]2c1ccc(C#N)cc1` (relative stereo), with 125 °C. `Fc1c(F)c(F)c2c(CCNCc3cccc(OCC(F)(F)F)c3)c[nH]c2c1F` gave a melting point of 107 to 108 °C. `CNC(=S)NS(=O)(=O)c1cc(CCNC(=O)c2cc(Cl)ccc2OC)ccc1-c1ccccn1` gave a melting point of 85 to 86 °C.

On to `O=[N+]([O-])c1cccc(S(=O)(=O)NCC2CC2)c1`, for which the melting point was 91 °C.

`CCn1ncnc1COc1nc2c(cc1C(C)(C)C)nnn2-c1ccccc1` displayed a melting point of 161 to 163 °C.

As for `COC(=O)c1ccc(N2CC(CNC(C)=S)OC2=O)cc1F` (stereo not drawn), the melting point lay within 152 to 154 °C. The figure for `Nc1cccc(N)c1Oc1ccccc1` is 110 to 111 °C; for `Cc1ccc(NC(=O)N2CCN(CCc3ccc(-c4cccc(N)n4)cc3)CC2)cc1` it is 160 to 162 °C. The molecule `CCOC(=O)c1c(C)nc2c(c1Cl)c1ccccc1n2C` showed a melting point of 123 to 124 °C. The figure for `NCC(=O)Nc1ccc(Cl)cc1C(=NCCO)c1ccccc1F` is 128 to 132 °C; for `COC(=O)c1nc(NC(C)=O)ccc1Oc1cc(OC)cc(OC)n1` it is 128 to 130 °C; for `O=C(O)c1ncsc1-c1cccc(I)c1` it is 186 °C. Then `COc1cc(C)cc(S(=O)(=O)c2cccc(N)c2C#N)c1`, with 166 to 168 °C; and `OCCOc1ccsc1`, with 38 to 39 °C; and `Cc1c(N)cc(C(C)(C)C)cc1N`, with 97.3 °C.

The molecule `OC(CCCn1ccnc1)c1ccccc1` (stereo not drawn) returned a melting point of 205 to 207 °C. `Cc1cn(-c2ccc(N)cc2C(F)(F)F)cn1` yielded a melting point of 141 to 143 °C. Consider `COC(=O)c1ccc([C@H](C)NC(C)=O)cc1`, for which the melting point was 125 to 127 °C. Molecule `COc1cccc(C=CC2=NN(C(C)=O)C(C)Cc3cc4c(cc32)OCO4)c1OC` (stereo not drawn) yielded a melting point of 125 to 128 °C.

`O=C(CSc1ccncc1)Nc1cccc(-c2ccnc3c(C(=O)c4cccs4)cnn23)c1` yielded a melting point of 138 to 144 °C. Regarding `Cc1c(Cc2cc(=O)n(C3CCCCC3)[nH]2)c2ccccc2n1C(=O)c1ccc(Cl)cc1`, the melting point was 98 °C. Then `CCCNC(=O)N(C)C1CCNCC1`, with 84 to 86 °C; and `CN(C)C(=O)Oc1ccc2c(c1)[nH]c(=O)c1c3ccc(OC(=O)N(C)C)cc3oc21`, with 255 to 269 °C. Then `Fc1ccc2nc[nH]c(=S)c2c1`, with 294 to 297 °C; and `O=C(/C=C/c1ccc(CN2CCCC2)cc1)Nc1ccc(Br)cc1`, with 184 to 186 °C; and `COc1nc(C)nc(NC(=O)NS(=O)(=O)c2csc3ccccc23)n1`, with 187 to 188 °C.

Molecule `C#Cc1ccc(C2=C(C#N)C(=C(C#N)C#N)OC2(C)C)cc1` came in with a melting point of 225 °C. The figure for `Cc1ccc(S(=O)(=O)Nc2cc(CC(C)C)c([N+](=O)[O-])cc2Br)cc1` is 170 °C; for `COc1ccc(-c2ccccc2-c2ccc(S(C)(=O)=O)cc2)cc1Cl` it is 162 °C.

Consider `CCOC(=O)CCCC(=O)c1cn(-c2cccnc2)c2ccccc12`, for which the melting point lay in the range of 95 to 97 °C. The figure for `COc1ccc(N2C(=O)C3=C(CCCC3)C2CC(=O)N2CCCCC2)cc1` (stereo not drawn) is 101 to 102 °C; for `CCOC(=O)N1CCC(CCCOc2ccc(C3=NCCCO3)cc2)CC1` it is 128 °C.

Molecule `Cc1cc(C(=O)Nc2cccc(Oc3ccc4nc(NC(=O)CN(C)C)cn4n3)c2)n(C)n1` yielded a melting point of 210 °C. The figure for `Cc1c(C(=O)Nc2ccc(Cl)c([N+](=O)[O-])c2)cnn1-c1ccc(Cl)cc1` is 221 to 225 °C; for `Cc1oc(-c2ccccc2)nc1COc1ccc(Cn2cc(CO)cn2)cc1` it is 100 to 101 °C. On to `C=C=CC(C)(O)c1ccc(Br)cc1` (stereo not drawn), for which the melting point lay within 45 to 50 °C. In turn, `Cc1cc(C)c2c(c1O)CCC2=O` registered a melting point of 152 to 154 °C.

In turn, `COc1ccc(C=CC(=O)c2c(OC)cc(OC)cc2OC2OC(COC(C)=O)C(OC(C)=O)C(OC(C)=O)C2NC(C)=O)cc1` (stereo not drawn) displayed a melting point of 108 to 110 °C. The figure for `CCCn1c(=O)c2[nH]c(C34CC5CC3CC(C4)C5=O)nc2n(CCC)c1=O` is 172 to 174 °C.

Regarding `Cc1cc(=O)c(C(=O)NS(C)(=O)=O)nn1-c1ccc(Cl)cc1`, the melting point was 225 to 227 °C. Take `COc1cc(-n2nc(C(F)(F)F)cc2C(F)(F)F)ccc1NC(=O)c1snnc1C`: the melting point is 119 to 121 °C.

As to `COc1cc(C(=O)c2nc3ccccc3[nH]2)cc([N+](=O)[O-])c1OC`, the melting point was in the range of 212 to 213 °C. Then `CCOC(=O)Cn1c(-c2ccc(OC)c(OC)c2)cc(=Nc2c(C)cc(C)cc2C)n(C)c1=O`, with 112 to 113 °C; and `O=C(O)Cc1ccc2oc(-c3ccc(Cl)cc3)nc2c1`, with 241 to 242 °C. Then `CC(C)OC(=O)c1cnn(-c2ccccn2)c1S(N)(=O)=O`, with 123 to 124 °C. Then `O=C(c1ccc(OC(F)(F)F)cc1)c1ccc(C(F)(F)F)cc1`, with 61.5 to 62 °C.

`CC(=O)OCC(=O)c1cc2c(s1)CCC1CC(=O)N(c3ccc(C)cc3)N=C21` (stereo not drawn): the melting point lay in the range of 144 to 145 °C. The figure for `COc1ccc(-c2nc(Sc3ccc(C)cc3)n(C3CCCCO3)c2-c2ccc(OC)cc2)cc1` (stereo not drawn) is 192 °C; for `CC1COCc2nc3c(N)nc4cc(CCC(=O)N5CCOCC5)ccc4c3n21` (stereo not drawn) it is 245 to 247 °C. `CCC1=NNC(C)=C(C(=O)OCc2ccco2)C1c1cccc([N+](=O)[O-])c1` (stereo not drawn) registered a melting point of 152 °C.

In turn, `COCCNc1nc(C2C(=O)Nc3ccc(Br)cc32)c2cn(CCOC)nc2n1` (stereo not drawn) registered a melting point of more than 300 °C. The figure for `Cc1nc2ccc(NC(=O)CC34CC5CC(CC(C5)C3)C4)cc2s1` is 172 °C. Then `CCCc1c(N)c(N)cc2c(=O)cc(C(=O)OC)oc12`, with 221 to 222 °C; and `CN(C)CCCSc1ccc2ccc(N)nc2n1`, with 164 °C. As to `CCCCCN(CCC12CC3CC(CC(C3)C1)C2)C(=O)NCCCn1ccnc1`, the melting point fell in the range of 97 to 100 °C.

In the case of `CCCOc1ccc(S(=O)(=O)N2CCN(CC)CC2)cc1-c1nc2cc3nc[nH]c3cc2c(=O)[nH]1`, the melting point is 194 to 196 °C. For `COc1ccc(C2CCCC(=O)N2c2ccc(OC)cc2)cc1` (stereo not drawn), the melting point was 108 to 109 °C.

Regarding `Oc1c(F)ccc(-c2c3ccccc3c(Br)c3sc4ccccc4c23)c1F`, the melting point is 180 to 182 °C. For `O=C(O)C(=O)c1ccc(OCCCCOc2ccccc2)cc1`, the melting point was 103 to 105 °C. The figure for `O=C1C2CCCCC2C(=O)N1c1cc(C(F)(F)F)cc(C(F)(F)F)c1` (stereo not drawn) is 85 to 87 °C; for `CC(C)[C@H](NC(=O)OCc1ccccc1)C(=O)N[C@@H](Cc1ccccc1)[C@@H](O)[C@@H](O)[C@H](Cc1ccccc1)NC(=O)OC(C)(C)C` it is 178 to 182 °C; for `O=C(c1ccccc1)c1ccc(NC(=O)C(O)(C(F)(F)F)C(F)(F)F)cc1` it is 143 to 146 °C. Then `O=c1cc(Oc2ccc([N+](=O)[O-])cc2)cc[nH]1`, with 227 to 228 °C; and `Nc1nc2ccc(SSc3ccc4nc(N)[nH]c4c3)cc2[nH]1`, with 245 °C. Then `CCOCc1nc2c(N)nc3ccccc3c2n1CC1(N(C(N)=O)C(C)C)CCCCC1`, with 135 to 160 °C; and `Cn1cc2c([C@@H]3C[C@H]3CNC(=O)c3ccc(Br)cc3)cccc2n1`, with 140 to 142 °C; and `CCCOCCc1ccc(-c2ccc3c(c2)C=C(C(=O)Nc2ccc(CN(C)C4CCOCC4)cc2)CCS3(=O)=O)c(Cl)c1`, with 150 to 152 °C. As to `CS(=O)(=O)c1ccc(-c2cnn(Cc3ccccc3)c(=O)c2Cl)cc1`, the melting point was in the range of 166 to 167 °C. Then `N#Cc1ccc(OCCCc2cc3c(cc2OCc2ccccc2)CC(CCc2ccccc2)O3)cc1` (stereo not drawn), with 154 to 157 °C; and `CCOC(=O)c1scc2c1ccc1cn[nH]c12`, with 124 to 125 °C. Then `COc1ccc(-c2ccc(C#N)cc2)nc1`, with 93 to 95 °C; and `C=CCOc1ccc2ccc(N)nc2n1`, with 138 °C. Then `O=C(O)c1c(O)cccc1OCCC(c1ccccc1)(c1ccccc1)c1ccccc1`, with 167 to 168 °C; and `CC1=NS(=O)(=O)N(Cc2ccncc2)C=C1`, with 100 to 101 °C; and `CC(C)n1nc(-c2cc(Br)c(N)nc2-c2ccccc2)ccc1=O`, with 174 to 176 °C.

The values are drawn from a melting point compilation (Tetko et al.; mined from patent text by program, amines drawn as free bases though some values may be those of a salt).
